Source: ChEMBL document CHEMBL5236544, “Furazans in Medicinal Chemistry” (J Med Chem, 2021)
“And” between values parts separate entries of the source, which are not always exact repeats. Equal values may be shown once. One block for each molecule: values may come before it.

Legend:
[1] = Half life in mouse at 10 mg/kg, po; format: ADME, organism-based; details: in vivo
[2] = test system: Plasmodium falciparum; test: Antimalarial activity against Plasmodium falciparum assessed as parasitic reduction at 100 mg/kg relative to control; format: functional; parameters: scale not given: the % may be the effect or the level left
[3] = test system: Plasmodium falciparum; test: Antimalarial activity against drug resistant Plasmodium falciparum KI; format: functional, organism-based
[4] = test system: Plasmodium falciparum; test: Antimalarial activity against drug sensitive Plasmodium falciparum 3D7; format: functional, organism-based
[5] = Cmax in mouse at 100 mg/kg, po; format: ADME, organism-based; parameters: dose 100 mg/kg, route po; details: in vivo
[6] = target: Lactate dehydrogenase (Plasmodium falciparum, UniProt Q0PJ46); test: Inhibition of recombinant Plasmodium falciparum LDH
[7] = test system: KB; test: Antitumor activity against human KB cells assessed as reduction in cell viability; format: functional, cell-based
[8] = test system: HeLa; test: Antitumor activity against human HeLa cells assessed as reduction in cell viability; format: functional, cell-based
[9] = Inhibition of human recombinant LDH
[10] = Cmax in mouse at 100 mg/kg, ip; format: ADME, organism-based; parameters: dose 100 mg/kg, route ip; details: in vivo
[11] = Half life in mouse at 10 mg/kg, ip; format: ADME, organism-based; details: in vivo
[12] = Binding affinity to Plasmodium falciparum LDH assessed as inhibitory constant
[13] = test system: Plasmodium falciparum; test: Antimalarial activity against Plasmodium falciparum assessed as parasitic reduction at 10 mg/kg of chloroquine relative to control; format: functional; parameters: scale not given: the % may be the effect or the level left
[14] = test system: SW480; test: cells; details: Homo sapiens, SW480, 24 h
Description: Antiproliferative activity against human SW480 cells assessed as inhibition of cell proliferation incubated for 24 hrs by MTT assay

[15] = test system: HCT-116; test: Antiproliferative activity against human HCT-116 cells assessed as inhibition of cell proliferation incubated for 24 hrs by MTT assay; format: functional, cell-based; details: HCT-116, 24 h
[16] = test system: HCT-116; test: Antitumor activity against human HCT-116 cells xenografted in mouse model assessed as reduction in tumor growth at 100 mg/kg bid relative to control; format: functional; parameters: scale not given: the % may be the effect or the level left
[17] = Antiproliferative activity against mouse Lewis lung carcinoma cell line cells assessed as inhibition of cell proliferation by MTT assay; format: functional, cell-based
[18] = target: Indoleamine 2,3-dioxygenase 1 (Homo sapiens, UniProt P14902); test: Inhibition of IDO1 (unknown origin)
[19] = test system: HeLa; test: Antiproliferative activity against human HeLa cells assessed as reduction in cell viability by MTT assay; format: functional, cell-based
[20] = test system: HCT-116; test: Antiproliferative activity against human HCT-116 cells assessed as inhibition of cell proliferation by MTT assay; format: functional, cell-based
[21] = test system: Canis familiaris; test: Cardioprotective activity in dogs assessed as reduction in aortic pressure at 5.0 ug/kg, iv relative to control; format: functional, Canis lupus familiaris; parameters: scale not given: the % may be the effect or the level left
[22] = test system: HeLa; test: Antitumor activity against human HeLa cells xenografted in mouse model assessed as reduction in tumor growth at 100 mg/kg bid relative to control; format: functional; parameters: scale not given: the % may be the effect or the level left
[23] = Half life in rat, iv; format: ADME; details: in vivo
[24] = Lipophilicity, log D of compound; format: physicochemical; details: octanol/water
[25] = Inhibition of HIF (unknown origin); parameters: species or system Homo sapiens
[26] = test system: SK-OV-3; test: Antiproliferative activity against human SK-OV-3 cells assessed as inhibition of cell proliferation by MTT assay; format: functional, cell-based
[27] = Half life in human liver microsomes; format: ADME
[28] = test system: SK-OV-3; test: Antitumor activity against human SK-OV-3 cells xenografted in mouse model assessed as reduction in tumor growth at 100 mg/kg bid relative to control; format: functional; parameters: scale not given: the % may be the effect or the level left
[29] = target: Ribosomal protein S6 kinase beta-1 (Homo sapiens, UniProt P23443); test: Inhibition of p70S6 (unknown origin) […]
[30] = test system: HL-60; test: Antiproliferative activity against human HL-60 cells assessed as inhibition of cell proliferation incubated for 24 hrs by MTT assay; format: functional, cell-based; details: HL-60, 24 h
[31] = test system: A549; test: Antiproliferative activity against human A549 cells assessed as inhibition of cell proliferation incubated for 24 hrs by MTT assay; format: functional, cell-based; details: A549, 24 h
[32] = test system: HeLa; test: Antiproliferative activity against human HeLa cells assessed as cell growth inhibition; format: functional, cell-based
[33] = test system: MDA-MB-453; test: Antitumor activity against human MDA-MB-453 cells in xenografted mouse model assessed as reduction in tumor growth at 30 mg/kg, ip administered daily for 21 days relative to control; format: functional; parameters: scale not given: the % may be the effect or the level left; details: time 21 day
[34] = test system: SK-OV-3; test: Antitumor activity against human SK-OV-3 cells in xenografted mouse model assessed as reduction in tumor growth at 30 mg/kg, ip administered daily for 21 days relative to control; format: functional; parameters: scale not given: the % may be the effect or the level left; details: time 21 day
[35] = test system: BT-474; test: Antitumor activity against human BT-474 cells in xenografted mouse model assessed as reduction in tumor growth at 30 mg/kg, ip administered daily for 21 days relative to control; format: functional; parameters: scale not given: the % may be the effect or the level left; details: time 21 day
[36] = test system: PANC-1; test: Antitumor activity against human PANC-1 cells in xenografted mouse model assessed as reduction in tumor growth at 30 mg/kg, ip administered daily for 21 days relative to control; format: functional; parameters: scale not given: the % may be the effect or the level left; details: time 21 day
[37] = test system: LNCaP; test: Antitumor activity against human LNCaP cells in xenografted mouse model assessed as reduction in tumor growth at 30 mg/kg, ip administered daily for 21 days relative to control; format: functional; parameters: scale not given: the % may be the effect or the level left; details: time 21 day
[38] = test system: HCC1954; test: Antitumor activity against human HCC1954 cells in xenografted mouse model assessed as reduction in tumor growth at 30 mg/kg, ip administered daily for 21 days relative to control; format: functional; parameters: scale not given: the % may be the effect or the level left; details: time 21 day

Sequence of Indoleamine 2,3-dioxygenase 1 (P14902 whole entry): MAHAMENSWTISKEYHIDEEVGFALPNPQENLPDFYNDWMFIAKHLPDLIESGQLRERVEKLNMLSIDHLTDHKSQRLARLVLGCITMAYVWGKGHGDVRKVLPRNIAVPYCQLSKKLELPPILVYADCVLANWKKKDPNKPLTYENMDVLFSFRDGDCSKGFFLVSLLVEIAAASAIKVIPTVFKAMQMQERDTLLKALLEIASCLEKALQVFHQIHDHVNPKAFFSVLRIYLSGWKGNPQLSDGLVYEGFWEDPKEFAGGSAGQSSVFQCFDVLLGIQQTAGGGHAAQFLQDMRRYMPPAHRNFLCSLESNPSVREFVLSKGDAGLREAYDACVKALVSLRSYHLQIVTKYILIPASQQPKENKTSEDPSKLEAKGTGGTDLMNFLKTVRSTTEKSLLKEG
Sequence of Ribosomal protein S6 kinase beta-1 (P23443 whole entry): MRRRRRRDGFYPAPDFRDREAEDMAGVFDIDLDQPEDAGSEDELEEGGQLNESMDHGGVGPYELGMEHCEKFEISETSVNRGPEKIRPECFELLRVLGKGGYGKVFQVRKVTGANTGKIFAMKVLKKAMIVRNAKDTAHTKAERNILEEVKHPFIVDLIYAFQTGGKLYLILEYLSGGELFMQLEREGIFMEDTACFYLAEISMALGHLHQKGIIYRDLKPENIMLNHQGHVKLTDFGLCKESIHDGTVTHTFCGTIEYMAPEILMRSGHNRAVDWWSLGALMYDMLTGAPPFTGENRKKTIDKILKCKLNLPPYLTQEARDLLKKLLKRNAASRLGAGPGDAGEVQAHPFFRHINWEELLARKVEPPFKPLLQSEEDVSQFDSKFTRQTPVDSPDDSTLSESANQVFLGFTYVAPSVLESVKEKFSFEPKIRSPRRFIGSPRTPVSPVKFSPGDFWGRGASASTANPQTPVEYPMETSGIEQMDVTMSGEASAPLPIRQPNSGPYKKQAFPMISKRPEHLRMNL
Sequence of Lactate dehydrogenase (Q0PJ46 whole entry): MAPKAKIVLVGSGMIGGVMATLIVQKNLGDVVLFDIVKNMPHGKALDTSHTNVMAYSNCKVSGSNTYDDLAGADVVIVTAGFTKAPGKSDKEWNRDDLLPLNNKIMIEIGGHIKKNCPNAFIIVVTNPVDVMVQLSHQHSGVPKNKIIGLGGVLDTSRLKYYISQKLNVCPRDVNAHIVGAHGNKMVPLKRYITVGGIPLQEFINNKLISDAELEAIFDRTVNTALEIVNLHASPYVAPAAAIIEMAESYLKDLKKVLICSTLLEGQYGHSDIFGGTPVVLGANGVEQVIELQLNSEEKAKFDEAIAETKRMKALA

Compound: O=C(O)c1nonc1O
half-life [1]: 1.3 h | Activity [2]: 41% | EC50 [3]: 18.6 µM | EC50 [4]: 22.5 µM | EC90 [4]: 75.9 µM | Cmax [5]: 138 µM | IC50 [6]: 0.65 µM | EC50 [7]: 640 µM | EC50 [8]: 1300 µM | IC50 [9]: 72.1 µM | Cmax [10]: 196 µM | half-life [11]: 1.3 h | Ki [12]: 0.21 µM | Activity [13]: 100%

Compound: c1ccc2c(c1)c1nc3nonc3nc1n2CCc1nn[nH]n1
EC50 [14]: 20 µM | EC50 [15]: 31 µM

Compound: O=C(NCCNc1nonc1/C(=N/O)Nc1ccc(F)c(Br)c1)c1cccc(N(CCCl)CCCl)c1
Activity [16]: 58% and 48% | EC50 [17]: 18 µM | IC50 [18]: 0.13 µM | EC50 [19]: 0.27 µM | EC50 [20]: 5.1 µM

Compound: CC1(C)Oc2ccc(C#N)cc2[C@@H](N2CCCC2=O)[C@@H]1O [LEVCROMAKALIM]
Activity [21]: -11.2%

Compound: Nc1nonc1C(=O)N/N=C1\c2ccccc2-c2nc3nonc3nc21
EC50 [30]: 1.2 µM | EC50 [15]: 1.6 µM | EC50 [31]: 0.8 µM

Compound: CCn1c(-c2nonc2N)nc2c(C#CC(C)(C)O)ncc(OC[C@H]3CCCNC3)c21 [GSK-690693]
Activity [33]: 27% | Activity [34]: 58% | Activity [35]: 46% | Activity [36]: 5% | Activity [37]: 50% | Activity [38]: 65%

Further lines, with some results ahead:

half-life [23]: 3.7 h
Compound: O=C(CNc1nonc1/C(=N/O)N[C@H]1Cc2ccc(F)cc21)NCCO
Activity [22]: 15%

logD [24]: 1.2 | IC50 [25]: 9 µM
Compound: CS(=O)(=O)c1ccc(Oc2cc(F)cc(C#N)c2)c2c1[C@H](O)[C@H](F)[C@@H]2F [BELZUTIFAN]

EC50 [26]: 0.01 µM | half-life [27]: > 3 h
Compound: NS(=O)(=O)CC(=O)NCCSc1nonc1/C(=N/O)Nc1cccc(Cl)c1
Activity [28]: 50%

IC50 [29]: 0.019 µM
Compound: Cc1ccc2c(c1)nc(-c1nonc1N)n2C1CCC1

EC50 [32]: 15.1 µM
Compound: Cc1ccc(/C=N/NC(=O)c2nnn(-c3nonc3N)c2-c2ccc([N+](=O)[O-])cc2)cc1
